# Reference: US8163795B2, “Chroman derivatives, medicaments and use in therapy” (Marshall Edwards, Inc., priority 2004, dated 2012)
# Where two headings read alike, the source gives them in different places.
# Experiments:
# [1] = tested on: cancer cell lines from different pathologies; assay: HHC as chemosensitiser, statements by cancer indication; assay type: cell-based
# Text: (§1) HHC was screened as chemosensitiser against a panel cell lines representative of a range cancer indications using a panel of cytotoxics commonly used in the treatment of cancer.
# HPAC (Pancreatic) = assay: HHC as chemosensitiser; assay type: cell-based
# Text: as §1
# MM96L (Melanoma) = assay: HHC as chemosensitiser; assay type: cell-based
# Text: as §1
# HTB-13.8 (Glioma) = assay: HHC as chemosensitiser; assay type: cell-based; conditions: Glioma HTB-13.8
# Text: as §1
# MDA-468 (Breast) = assay: HHC as chemosensitiser; assay type: cell-based; conditions: Breast MDA-468
# Text: as §1
# PC3 (Prostate) = assay: HHC as chemosensitiser; assay type: cell-based
# Text: as §1
# CP70 (Ovarian) = assay: HHC as chemosensitiser; assay type: cell-based
# Text: as §1
# [2] = tested on: HPAC (CRL-2119) pancreatic cancer cell line; assay: Proliferation assay (MTT); assay type: cell-based, human; conditions: Homo sapiens, HPAC, Table 2.2; Pancreatic HPAC; read-out: IC50
# MM200 melanoma cell line = assay: Proliferation assay (MTT); assay type: cell-based; conditions: read-out: IC50
# A2058 melanoma cell line = assay: Proliferation assay (MTT); assay type: cell-based; conditions: Homo sapiens, A2058, Table 15; melanoma A2058
# [3] = tested on: CP70 ovarian cancer cell line; assay: Proliferation assay (MTT); assay type: cell-based; conditions: Table 2.2 (further studies); Ovarian CP70; read-out: IC50
# cancer cell lines = assay: Proliferation assays, statements over several cancer cell lines; assay type: cell-based; conditions: all melanoma cell lines tested to date
# Method: (§2) IC50 values were determined for each cell line. Cells were seeded in 96-well plates at an appropriate cell density as determined from growth kinetics analysis and cultured for 5 days in the absence and presence of the test compounds. Cell proliferation was assessed after the addition of 20 μl of 3-4,5 dimethylthiazol-2,5-diphenyl tetrazolium bromide (MTT, 2.5 mg/ml in PBS, Sigma) for 3-4 hrs at 37° C. according to manufacturer's instructions. IC50 values were calculated from semi-log plots of % of control proliferation on the y-axis against log dose on the x-axis.
# PGE2 = assay: Eicosanoid synthesis in LPS-stimulated murine macrophages (RAW 264.7); assay type: cell-based, mouse; conditions: 10 μM; negative values indicate inhibition
# Method: (§3) The mouse macrophage cell line RAW 264.7 was cultured in DMEM supplemented with foetal calf serum (FCS), 2 mM glutamine and 50 U/ml penicillin/streptomycin. Subconfluent cells were detached from the flask by gentle scraping and 24-well plates seeded at 5×10^5 cells per well and allowed to adhere for 1 hr. Cells were then treated either test compound at a concentration of 10 μM (in 0.025% DMSO) or vehicle alone, and incubated for 1 hr. LPS 50 ng/ml (LPS—Sigma-Aldrich) was then added. After incubation for 16 hrs, culture media was collected and stored at −80° C. for ecosanoid measurements using enzyme immunometric assays (PGE2 and TXB2—Cayman Chemical).
# (§4) Table 16: Percentage change in eicosanoid synthesis after incubating test compound at 10 μM compared with incubation with vehicle alone.
# TXB2 = assay: as above; assay type: cell-based, mouse; conditions: 10 μM; negative values indicate inhibition
# Method: as §3, §4
# [4] = tested on: MDA-MB-468 breast cancer cell line; assay: Proliferation assay (MTT); assay type: cell-based; conditions: Homo sapiens, MDA-MB-468, Table 2.2; Breast MDA-MB-468; read-out: IC50
# RM melanoma cell line = assay: Proliferation assay (MTT); assay type: cell-based; conditions: Table 15
# Method: (§5) All cultures were supplemented with 10% FCS (fetal calf serum CSL, Australia), penicillin (100 U/ml), streptomycin ([…]), L-glutamine (2 mM) and sodium bicarbonate (1.2 g/L), and cultured at 37° C. in a humidified atmosphere of 5% CO2. All cell lines were purchased from ATCC (Maryland, USA) except where noted.
# as §2
# HT-29 (Colorectal) = assay: Proliferation assay (MTT); assay type: cell-based; conditions: Homo sapiens, HT-29, Table 2.2; Colorectal HT-29
# Method: as §5, §2
# NCI-H460 (Lung) = assay: Proliferation assay (MTT); assay type: cell-based; conditions: Homo sapiens, NCI-H460, Table 2.2; NSC Lung NCI-H460
# Method: as §5, §2
# CCRF-CEM (Leukemic) = assay: Proliferation assay (MTT); assay type: cell-based; conditions: Homo sapiens, CCRF-CEM, Table 2.2; Leukaemia CCRF-CEM
# Method: as §5, §2
# 4405 melanoma cell line = assay: Proliferation assay (MTT); assay type: cell-based; conditions: Table 15; melanoma 4405
# Method: as §5, §2
# IGR-3 (Melanoma) = assay: Proliferation assay (MTT); assay type: cell-based; conditions: Table 15; melanoma IgR3
# Method: as §5, §2
# HTB-138 (Glioma) = assay: Proliferation assay (MTT); assay type: cell-based; conditions: Table 2.2; Glioma HTB-138
# Method: as §5, §2
# MM96L melanoma cell line = assay: Proliferation assay (MTT); assay type: cell-based; conditions: Homo sapiens, Table 15
# Method: as §5, §2
# [5] = tested on: SKMe128 melanoma cell line; assay: Proliferation assay (MTT); assay type: cell-based; conditions: Table 15
# Method: as §5, §2
# [6] = tested on: PC3 prostate cancer cell line; assay: Proliferation assay (MTT); assay type: cell-based; conditions: Table 2.2
# Method: as §5, §2
# rabbit kidney cells (RK) = assay: Proliferation assay (MTT), normal cell toxicity; assay type: cell-based
# Method: (§6) The normal cell line NFF (neonatal foreskin fibroblasts) was a sift from Dr. Peter Parsons (Queensland Institute of Medical Research). RK (rabbit kidney) cells were obtained from Miller Whalley (Macquarie University). Both cell lines were cultured in RPMI supplemented with 10% FCS(CSL, Australia), penicillin (100 U/ml), streptomycin ([…]), L-glutamine (2 mM) and sodium bicarbonate (1.2 g/L), and cultured at 37° C. in a humidified atmosphere of 5% CO2.
# as §2
# [7] = tested on: Neonatal foreskin fibroblasts (NFF); assay: Proliferation assay (MTT), normal cell toxicity; assay type: cell-based, Human
# Method: as §6, §2
# [8] = HMC and HHC pharmacokinetics, oral, human patients; assay type: in vivo; conditions: plasma
# Method: Human patients were orally dosed with 200 mg of either HMC or HHC. For each challenged patient, blood was taken over a 6 hour period and the results averaged to characterise the plasma pharmacokinetics.
# [9] = human, po, humans dosed orally with 200 mg
smiles,measurement,setting,value
"Oc1ccc(C2COc3cc(O)ccc3C2c2ccc(O)cc2)cc1 (stereo not drawn) [Compound 11, 3-(4-hydroxyphenyl)-4-(4-hydroxyphenyl)chroman-7-ol]",synergy HHC:paclitaxel,"[1]; breast and colorectal cancer, and melanoma cell lines",Moderate synergy
same,synergy HHC:cisplatin,[1]; colorectal cancer cell lines,mild synergy
same,synergy HHC:cisplatin,[1]; ovarian and prostate cancer,Strong synergy
same,synergy HHC:paclitaxel,[1]; ovarian cancer and glioma cell lines,Equivocal synergy
same,chemosensitisation to gemcitabine,"[1]; ovarian, prostate, breast and pancreatic cancers, and glioma",strongly chemosensitise
same,synergy HHC:cisplatin,[1]; pancreatic cancer and glioma,synergy was not observed
same,synergy HHC:paclitaxel,[1]; prostate and pancreatic cancer cell lines,no evidence of synergy
same,Synergy of HHC with Cisplatin,HPAC (Pancreatic),n.o. (n.o. = not observed)
same,Synergy of HHC with Gemcitabine,HPAC (Pancreatic),SSSSS (SSSSS = Synergy)
same,Synergy of HHC with Paclitaxel,HPAC (Pancreatic),n.o. (n.o. = not observed)
same,"chemosensitisation to cisplatin, carboplatin and decarbazine",MM96L (Melanoma); MM96L melanoma cell line,strongly chemosensitise
same,Synergy of HHC with Carboplatin,MM96L (Melanoma); Melanoma MM96L,SSSSS (SSSSS = Synergy)
same,Synergy of HHC with Cisplatin,MM96L (Melanoma); Melanoma MM96L,SSSSS (SSSSS = Synergy)
same,Synergy of HHC with Dacarbazine,MM96L (Melanoma); Melanoma MM96L,SSSSS (SSSSS = Synergy)
same,Synergy of HHC with Cisplatin,HTB-13.8 (Glioma),n.o. (n.o. = not observed)
same,Synergy of HHC with Gemcitabine,HTB-13.8 (Glioma),SSSSS (SSSSS = Synergy)
same,Synergy of HHC with Paclitaxel,HTB-13.8 (Glioma); listed as HHC,n.o. (n.o. = not observed)
same,Synergy of HHC with Gemcitabine,MDA-468 (Breast),SSSSS (SSSSS = Synergy)
same,Synergy of HHC with Cisplatin,PC3 (Prostate),SSSSS (SSSSS = Synergy)
same,Synergy of HHC with Gemcitabine,PC3 (Prostate),SSSSS (SSSSS = Synergy)
same,Synergy of HHC with Paclitaxel,PC3 (Prostate),n.o. (n.o. = not observed)
same,Synergy of HHC with Cisplatin,CP70 (Ovarian),SSSSS (SSSSS = Synergy)
same,Synergy of HHC with Gemcitabine,CP70 (Ovarian),SSSSS (SSSSS = Synergy)
same,Synergy of HHC with Paclitaxel,CP70 (Ovarian); listed as HHC,n.o. (n.o. = not observed)
same,IC50,[2],31600 ± 27000 nM
same,IC50,"MM200 melanoma cell line; Table 2.2, Melanoma MM200",600 ± 300 nM
same,IC50,"MM200 melanoma cell line; Table 15, melanoma MM200, monotherapy",660 ± 280 nM
same,IC50,A2058 melanoma cell line,340 nM
same,IC50,[3],1100 ± 900 nM
same,IC50,cancer cell lines,< 1000 nM
same,Percentage change in PGE2 synthesis vs vehicle alone,PGE2,27.2%
same,Percentage change in TXB2 synthesis vs vehicle alone,TXB2,51.4%
same,IC50,[4],1000 ± 100 nM
same,IC50,RM melanoma cell line,390 ± 280 nM
same,IC50,HT-29 (Colorectal),2500 ± 1000 nM
same,IC50,NCI-H460 (Lung),500 ± 100 nM
same,IC50,CCRF-CEM (Leukemic),600 ± 10 nM
same,IC50,4405 melanoma cell line,500 nM
same,IC50,IGR-3 (Melanoma),200 nM
same,IC50,HTB-138 (Glioma),520 ± 100 nM
same,IC50,MM96L melanoma cell line,200 ± 90 nM
same,IC50,[5],360 ± 340 nM
same,IC50,[6],880 ± 400 nM
same,IC50,"rabbit kidney cells (RK); Oryctolagus cuniculus, Table 1, Rabbit Kidney, read-out: IC50",> 150000 nM
same,IC50,rabbit kidney cells (RK); rabbit kidney cells,non-toxic
same,IC50,"[7]; Homo sapiens, Fibroblast, Table 1, Neonatal Foreskin Fibroblasts (Human, NFF), read-out: IC50",60800 nM
same,IC50,[7]; NFF,non-toxic
same,Cmax,[8]; [9],341 ng/mL
same,Tmax,[8]; [9],2.67 h
same,t1/2,[8]; humans dosed orally with 200 mg,3.26 h
same,half-life,"[8]; human patients, 200 mg oral, initial results",3.26 h
